Test results: patent publication US20250346601A1, “HETEROCYCLIC COMPOUNDS FOR THE PREVENTION AND THERAPY OF CIRCADIAN RHYTHM DISORDERS” (UNIVERZITA PALACKEHO V OLOMOUCI, priority 2022, published 2025)

Assays:
[1] = system: NIH3T3 line transfected with the Per2-Luc reporter; assay: Period of the circadian rhythm in NIH3T3 fibroblasts with Per2-Luc reporter (luminescence, cosinor analysis); format: cell-based, mouse; details: 50 μM; NIH3T3; DMSO control = 1.00
Method: NIH3T3 mouse embryonic fibroblasts were grown in standard DMEM with 10% fetal bovine serum. NIH3T3 cells were transfected with 1 μg of Per2-Luc reporter using GeneJuice and selected under hygromycin. The cell line was clonally expanded and a single monoclonal cell line was used for further experiments. Cells were cultured in a 96-well plate in growth medium to 90+% confluence. Test compound or vehicle (DMSO) was applied to recording medium with 100 U/ml penicillin, 100 μg/ml streptomycin, 1x GlutaMAX, 10% fetal calf serum and 0.1 mM Luciferin-EF (Promega Madison, WI, USA). Luminescence was recorded every hour for the next 144 hours. Circadian rhythm analysis was performed using cosinor analysis. Period length was expressed relative to the period of cells affected only by DMSO vehicle (their period length is therefore 1.00).

[2] = system: explanted suprachiasmatic nuclei (SCN) of the hypothalamus; assay: PER2::Luc rhythm in organotypic explants of suprachiasmatic nucleus (LumiCycle); format: cell-based, mouse; details: ratio of period 72 h after and 72 h before application
Method: FIG. 5. Compounds of formula I modulate the parameters of the circadian clock in the suprachiasmatic nucleus, the central circadian oscillator. It increases the period (left; measured as the ratio of period during 72 h after and 72 h before application of a compound) and induces phase shift (right; quantified by fitting a cosine curve before the application of a compound, extrapolating it beyond the time of application and subtracting the actual and extrapolated phases of the first full circadian cycle corrected by endogenous period of the explant, while designating phase advance as positive and phase delay as negative number in hours). (Example 14)
Male and female mPer2Luc mice (strain B6.129S6-Per2tm1Jt/J, JAX, USA) (Yoo et al., 2004; doi: 10.1073/pnas.0308709101) were maintained in a light/dark cycle with 12 hours of light and 12 hours of darkness (LD12: 12), killed between 12:00 and 15:00, i.e. 6-9 hours after turning on the lights, by rapid cervical dislocation under isoflurane anesthesia, their brains were removed and 250 μm thick SCN slices in ice-cold HBSS medium were prepared using a vibratome (Leica, Wetzlar, Germany). Two explants containing SCN from each brain were prepared. […]

[3] = system: U2OS line transduced with the Bmal 1-Luc reporter; assay: Period of the circadian rhythm in U2OS cells with Bmal1-Luc reporter (luminescence, cosinor analysis); format: cell-based, Human; details: 20 μM; U2OS; DMSO control = 1.00
Method: Human osteosarcoma U2OS cells were grown in standard DMEM medium with 10% fetal bovine serum. U2OS cells were transduced with lentiviral particles containing a Bmall-Luc fusion reporter and selected under Blasticidin. The cell line was clonally expanded and a single monoclonal cell line was used for further experiments. Cells were cultured in a 384-well plate in growth medium to 90+% confluence. Test compound or vehicle (DMSO) was applied to recording medium with 100 U/ml penicillin, 100 ug/ml streptomycin, 1x GlutaMAX, 10% fetal bovine serum, and 0.1 mM Luciferin-EF. Luminescence was recorded every hour for the next 144 hours. Circadian rhythm analysis was performed using cosinor analysis.
The length of the period was expressed relative to the period of cells affected only by DMSO vehicle (their period is therefore 1.00). […] The overall effect on circadian oscillations unequivocally proves that the compounds of formula I can be also used to temporally modulate the concentration and activity of not only BMAL1, but also other components of the oscillator including the critical components PER2, CRY and CLOCK in time, as these are an essential part of the mechanism generating the rhythmic expression of the luminescent reporter used. The concentration and level of other proteins, whose rhythmic expression is controlled by an oscillator in the brain and peripheral tissues (so-called clock-controlled genes), are also necessarily affected. The influence of the compounds of formula I on the activity of oscillator components and subordinate genes also means influencing the physiological processes of the cell controlled by these genes and proteins. N^6-furfuryladenine was used as a reference compound. […] The ability to shift the phase of the circadian cycle can be seen in FIG. 2.

[4] = system: explanted choroid plexus (ChP) of 4th brain ventricle; assay: PER2::Luc rhythm in explanted choroid plexus (luminescence microscopy); format: cell-based, mouse; details: 200 uM, choroid plexus explant
Method: FIG. 6: Compound 4 affects the circadian clock in the explanted choroid plexus (CHP). (A) Individual PER2::Luc traces in analysed single-cell-sized regions of interest (ROIs) of explanted choroid plexus (CP) cultivated over 5 days ex vivo in the presence of DMSO (left) or compound 4 (right). Cosine curve below the traces indicates average oscillation across the whole explant; see dramatic increase of period in the presence of 200 uM compound 4. […] (Example 15)
Male mPer2Luc were kept and sacrificed under the same conditions as above. Their brains were removed, choroid plexus was dissected from the 4th ventricle in ice-cold HBSS medium and placed on Millicell Culture Inserts inside 6-well plate with test compound or DMSO vehicle in 1 ml air-buffered recording medium supplemented with 100 U/ml penicillin, 100 ug/ml streptomycin (Sigma-Aldrich, St. Luis, MO, USA), 1x GlutaMAX (ThermoFisher, Waltham, MA, USA), 1x B27 (ThermoFisher) and 0.1 mM Luciferin-EF (Promega Madison, WI, USA). The were placed inside Luminoview LV200 Miscroscope (Olympus, USA) with liquid-cooled EM-CCD camera (Hamamatsu) and luminescence was recorded by 10 min exposure every 1h.

Structure (SMILES): c1coc(CNc2ncnc3c2ncn3C2CCCCO2)c1 (centres unmarked) [Compound 4, N-(furan-2-ylmethyl)-9-(tetrahydro-2H-pyran-2-yl)-9H-purin-6-amine]
- Period length ± standard error of the mean (expressed relative to the control) at the indicated concentration [1]: 50 μM: 1.23 ± 0.03
- Circadian rhythm period (in words) [2]: increases the circadian rhythm period
- Period length ± standard error of the mean (expressed relative to control) at the indicated concentration [3]: 20 μM: 1.08 ± 0
- Period of PER2::Luc (in words) ([4]; 5 days ex vivo, vs DMSO): significantly (t-test, P<0.0001) increased
- Phase of PER2::Luc (in words) ([4]; polar histogram of ROIs vs DMSO): dramatically affected
